{"source": "ChEMBL document CHEMBL4028808", "about": "“Design and synthesis of selective CDK8/19 dual inhibitors: Discovery of 4,5-dihydrothieno[3',4':3,4]benzo[1,2-d]isothiazole derivatives” (Bioorg Med Chem, 2017)", "key": {"[1]": {"biological_target": "Mitogen-activated protein kinase 14 (Homo sapiens) (UniProt Q16539)", "sequence (Q16539 whole entry)": "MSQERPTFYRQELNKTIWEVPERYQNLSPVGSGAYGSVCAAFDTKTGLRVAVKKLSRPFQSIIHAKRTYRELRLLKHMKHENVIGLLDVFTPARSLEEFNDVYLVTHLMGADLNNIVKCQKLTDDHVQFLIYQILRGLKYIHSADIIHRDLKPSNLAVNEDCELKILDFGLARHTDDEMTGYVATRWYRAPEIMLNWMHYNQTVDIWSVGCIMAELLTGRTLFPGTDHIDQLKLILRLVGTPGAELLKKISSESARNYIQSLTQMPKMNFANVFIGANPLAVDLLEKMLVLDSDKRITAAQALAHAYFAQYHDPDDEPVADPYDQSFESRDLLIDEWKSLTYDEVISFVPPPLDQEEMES", "experiment": "Inhibition of p38alpha (unknown origin) at <1 uM using MBP as substrate preincubated for 5 mins followed by substrate addition measured after 60 mins in presence of [gamma32P]ATP by scintillation counter method"}, "[2]": {"tested_on": "Mus musculus", "experiment": "In vivo inhibition of CDK8-mediated STAT1 phosphorylation in human RPMI8226 cells xenografted in C.B17/Icr scid/scid Jcl mouse at 1.25 mg/kg, po bid administered for 14 days measured 2 to 8 hrs post last dose", "assay_type": "functional, organism-based"}, "[3]": {"biological_target": "Homeodomain-interacting protein kinase 1 (Homo sapiens, UniProt Q86Z02)", "sequence (Q86Z02 whole entry, looked up)": "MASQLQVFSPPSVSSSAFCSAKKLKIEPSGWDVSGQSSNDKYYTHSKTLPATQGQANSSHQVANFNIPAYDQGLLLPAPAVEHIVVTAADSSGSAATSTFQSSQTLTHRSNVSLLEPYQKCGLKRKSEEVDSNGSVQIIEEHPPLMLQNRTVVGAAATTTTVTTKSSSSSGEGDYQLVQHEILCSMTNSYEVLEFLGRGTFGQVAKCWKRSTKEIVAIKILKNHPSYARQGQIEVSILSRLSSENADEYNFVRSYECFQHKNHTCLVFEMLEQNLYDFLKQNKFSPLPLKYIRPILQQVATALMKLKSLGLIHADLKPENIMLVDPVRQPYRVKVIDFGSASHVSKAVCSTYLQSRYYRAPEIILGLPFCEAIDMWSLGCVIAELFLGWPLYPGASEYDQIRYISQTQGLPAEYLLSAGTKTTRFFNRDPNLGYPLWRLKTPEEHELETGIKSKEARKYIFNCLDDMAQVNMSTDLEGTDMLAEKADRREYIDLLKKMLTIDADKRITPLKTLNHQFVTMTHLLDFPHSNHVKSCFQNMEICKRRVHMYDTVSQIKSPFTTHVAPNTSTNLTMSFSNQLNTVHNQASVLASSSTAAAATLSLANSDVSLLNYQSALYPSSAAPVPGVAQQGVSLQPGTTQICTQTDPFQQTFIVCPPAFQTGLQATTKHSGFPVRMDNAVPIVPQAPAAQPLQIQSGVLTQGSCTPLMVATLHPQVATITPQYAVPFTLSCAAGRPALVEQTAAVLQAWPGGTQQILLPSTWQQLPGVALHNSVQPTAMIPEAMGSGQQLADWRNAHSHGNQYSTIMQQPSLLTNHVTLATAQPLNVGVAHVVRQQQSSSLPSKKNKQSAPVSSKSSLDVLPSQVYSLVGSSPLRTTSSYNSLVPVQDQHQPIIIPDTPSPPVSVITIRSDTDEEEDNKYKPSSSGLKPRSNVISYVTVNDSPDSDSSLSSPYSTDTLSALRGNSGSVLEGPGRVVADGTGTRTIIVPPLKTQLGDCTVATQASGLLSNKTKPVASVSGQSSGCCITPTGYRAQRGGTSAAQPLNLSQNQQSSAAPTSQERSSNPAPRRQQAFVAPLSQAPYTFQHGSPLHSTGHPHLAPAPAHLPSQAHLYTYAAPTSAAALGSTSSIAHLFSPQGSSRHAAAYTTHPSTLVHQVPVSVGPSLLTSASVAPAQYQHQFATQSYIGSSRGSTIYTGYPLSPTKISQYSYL", "conditions": "300 nM"}, "[4]": {"experiment": "Half life in ICR mouse plasma at 0.1 mg/kg, iv or 1 mg/kg, po administered as cassette dose by LC-MS/MS analysis", "assay_type": "ADME, organism-based"}, "[5]": {"biological_target": "Homeodomain-interacting protein kinase 2 (Homo sapiens) (UniProt Q9H2X6)", "experiment": "Binding affinity to partial length wild-type human HIPK2 (M153 to S564 residues) expressed in mammalian expression system assessed as unbound drug level at 300 nM by KINOMEscan assay"}, "[6]": {"biological_target": "Aurora kinase B (Homo sapiens) (UniProt Q96GD4)", "experiment": "Inhibition of Aurora B (unknown origin) at <1 uM using aurora peptide as substrate preincubated for 5 mins followed by substrate addition measured after 60 mins in presence of [gamma33P]ATP by scintillation counter method"}, "[7]": {"experiment": "Toxicity in C.B17/Icr scid/scid Jcl mouse mouse", "conditions": "in vivo"}, "[8]": {"biological_target": "Mitogen-activated protein kinase kinase kinase 5 (Homo sapiens) (UniProt Q99683)", "experiment": "Inhibition of ASK1 (unknown origin) at 1 uM using MBP as substrate preincubated for 5 mins followed by substrate addition measured after 60 mins in presence of [gamma33P]ATP by scintillation counter method relative to control"}, "[9]": {"biological_target": "CDK8/Cyclin C (Homo sapiens, UniProt P49336)", "experiment": "Inhibition of kinase tracer-236 binding to GST-tagged CDK8/CyclinC (unknown origin) after 60 mins by TR-FRET assay", "assay_type": "protein-complex assay"}, "[10]": {"biological_target": "CDK8/Cyclin C (Homo sapiens) (UniProt P49336+P24863)", "conditions": "1 uM", "description": "Inhibition of kinase tracer-236 binding to GST-tagged CDK8/CyclinC (unknown origin) at 1 uM after 60 mins by TR-FRET assay relative to control"}, "[11]": {"biological_target": "Proto-oncogene tyrosine-protein kinase Src (Homo sapiens) (UniProt P12931)", "experiment": "Inhibition of SRC (unknown origin) at <1 uM using biotinylated poly[Glu:Tyr] (4:1) as substrate pretreated for 5 mins followed by substrate addition measured after 10 mins by Alphascreen assay"}, "[12]": {"biological_target": "Dual specificity mitogen-activated protein kinase kinase 1 (Homo sapiens) (UniProt Q02750)", "experiment": "Inhibition of MEK1 (unknown origin) at <1 uM using GST-ERK1 as substrate preincubated for 5 mins followed by substrate addition measured after 20 mins in presence of [gamma33P]ATP by scintillation counter method"}, "[13]": {"experiment": "Oral bioavailability in ICR mouse plasma at 1 mg/kg administered as cassette dose by LC-MS/MS analysis", "assay_type": "ADME, organism-based"}, "[14]": {"biological_target": "Rho-associated protein kinase 1 (Homo sapiens) (UniProt Q13464)", "sequence (Q13464 2-1354 limits assumed)": "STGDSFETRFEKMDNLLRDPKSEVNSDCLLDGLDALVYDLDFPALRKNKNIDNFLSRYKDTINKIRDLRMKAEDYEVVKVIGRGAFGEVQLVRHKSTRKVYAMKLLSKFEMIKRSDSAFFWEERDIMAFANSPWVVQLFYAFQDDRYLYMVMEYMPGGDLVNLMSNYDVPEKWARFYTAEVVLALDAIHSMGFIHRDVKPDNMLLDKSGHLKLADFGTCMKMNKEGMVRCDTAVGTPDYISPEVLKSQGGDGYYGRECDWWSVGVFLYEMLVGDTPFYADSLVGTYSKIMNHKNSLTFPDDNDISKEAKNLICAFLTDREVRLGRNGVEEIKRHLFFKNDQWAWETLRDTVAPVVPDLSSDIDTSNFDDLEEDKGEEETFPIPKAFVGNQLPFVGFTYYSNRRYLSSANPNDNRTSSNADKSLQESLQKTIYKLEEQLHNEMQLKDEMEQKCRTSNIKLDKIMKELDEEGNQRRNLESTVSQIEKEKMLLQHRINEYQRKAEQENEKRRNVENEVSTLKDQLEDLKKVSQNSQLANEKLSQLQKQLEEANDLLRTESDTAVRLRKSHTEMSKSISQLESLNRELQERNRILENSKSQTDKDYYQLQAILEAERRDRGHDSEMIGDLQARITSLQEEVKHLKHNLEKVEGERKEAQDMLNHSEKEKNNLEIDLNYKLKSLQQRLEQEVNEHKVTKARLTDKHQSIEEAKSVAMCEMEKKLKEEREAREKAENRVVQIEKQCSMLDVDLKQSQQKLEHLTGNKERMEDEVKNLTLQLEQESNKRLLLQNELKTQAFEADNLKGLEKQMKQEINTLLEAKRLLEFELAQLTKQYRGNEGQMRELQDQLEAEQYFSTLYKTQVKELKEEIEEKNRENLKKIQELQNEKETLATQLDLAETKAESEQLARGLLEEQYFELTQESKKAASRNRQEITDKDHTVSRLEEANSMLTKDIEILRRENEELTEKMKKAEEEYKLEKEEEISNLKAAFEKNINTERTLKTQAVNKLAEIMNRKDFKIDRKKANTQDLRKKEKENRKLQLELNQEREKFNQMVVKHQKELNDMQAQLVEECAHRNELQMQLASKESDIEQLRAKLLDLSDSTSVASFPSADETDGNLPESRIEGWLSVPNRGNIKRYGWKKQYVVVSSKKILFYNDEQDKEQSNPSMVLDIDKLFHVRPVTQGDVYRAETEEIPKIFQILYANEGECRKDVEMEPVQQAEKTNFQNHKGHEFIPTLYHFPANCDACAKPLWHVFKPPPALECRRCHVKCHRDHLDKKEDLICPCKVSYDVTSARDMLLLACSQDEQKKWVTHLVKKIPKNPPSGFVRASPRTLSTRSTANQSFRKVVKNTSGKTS", "experiment": "Inhibition of ROCK1 (unknown origin) at 1 uM using long S6 peptide as substrate pretreated for 5 mins followed by substrate addition measured after 10 mins in presence of [gamma33P]ATP by scintillation counting method relative to control"}, "[15]": {"biological_target": "Ephrin type-A receptor 3 (Homo sapiens, UniProt P29320)", "sequence (P29320 whole entry, the tested form may be a part)": "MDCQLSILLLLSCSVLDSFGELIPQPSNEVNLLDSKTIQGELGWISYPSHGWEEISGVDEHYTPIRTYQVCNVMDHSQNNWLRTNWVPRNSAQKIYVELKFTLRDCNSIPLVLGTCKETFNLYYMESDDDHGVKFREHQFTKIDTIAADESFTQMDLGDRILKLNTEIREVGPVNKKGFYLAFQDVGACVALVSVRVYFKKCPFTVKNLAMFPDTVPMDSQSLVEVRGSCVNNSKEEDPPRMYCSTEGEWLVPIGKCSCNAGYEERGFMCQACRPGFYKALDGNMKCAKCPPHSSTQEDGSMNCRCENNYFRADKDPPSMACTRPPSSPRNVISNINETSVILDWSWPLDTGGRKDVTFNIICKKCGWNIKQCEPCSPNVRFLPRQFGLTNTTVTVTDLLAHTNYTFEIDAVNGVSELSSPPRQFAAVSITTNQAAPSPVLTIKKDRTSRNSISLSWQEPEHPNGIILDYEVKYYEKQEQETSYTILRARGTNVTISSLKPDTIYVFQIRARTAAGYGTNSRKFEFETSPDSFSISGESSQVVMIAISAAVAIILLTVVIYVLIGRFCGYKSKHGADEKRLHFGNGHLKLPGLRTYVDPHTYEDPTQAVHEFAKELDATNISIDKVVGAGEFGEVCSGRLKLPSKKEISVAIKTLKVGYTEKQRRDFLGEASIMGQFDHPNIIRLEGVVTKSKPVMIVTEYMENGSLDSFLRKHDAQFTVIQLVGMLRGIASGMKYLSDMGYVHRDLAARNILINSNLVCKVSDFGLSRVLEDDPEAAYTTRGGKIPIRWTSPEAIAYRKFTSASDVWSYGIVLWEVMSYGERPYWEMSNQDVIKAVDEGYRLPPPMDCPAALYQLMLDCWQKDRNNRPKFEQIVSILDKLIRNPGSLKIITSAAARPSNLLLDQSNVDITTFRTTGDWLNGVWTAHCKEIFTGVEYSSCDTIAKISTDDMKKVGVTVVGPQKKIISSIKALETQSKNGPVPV", "experiment": "Binding affinity to partial length wild-type human EPHA3 (D604 to K889 residues) expressed in bacterial expression system by kinome scan assay"}, "[16]": {"biological_target": "Cyclin-dependent kinase 8 (Homo sapiens, UniProt P49336)", "experiment": "Binding affinity to partial length wild-type human CDK8 (M1 to T360residues) expressed in bacterial expression system by kinome scan assay"}, "[17]": {"biological_target": "Cyclin-C/Cyclin-dependent kinase 19 (Homo sapiens) (UniProt Q9BWU1+P24863)", "conditions": "1 uM", "description": "Inhibition of kinase tracer-236 binding to GST-tagged CDK19/CyclinC (unknown origin) at 1 uM after 60 mins by TR-FRET assay relative to control"}, "[18]": {"tested_on": "RPMI-8226", "experiment": "Antitumor activity against human RPMI8226 cells xenografted in C.B17/Icr scid/scid Jcl mouse assessed as tumor growth suppression at 1.25 mg/kg, po bid administered for 14 days measured post last dose relative to control", "assay_type": "functional"}, "[19]": {"experiment": "Aqueous solubility of the compound in DMSO at pH 6.8 by HPLC method", "assay_type": "physicochemical"}, "[20]": {"biological_target": "CDK2/Cyclin A2 (Homo sapiens) (UniProt P24941+P20248)", "experiment": "Inhibition of CDK2/cyclin A (unknown origin) at 1 uM using histone H1 as substrate preincubated for 5 mins followed by substrate addition measured after 20 mins in presence of [gamma33P]ATP by scintillation counter method relative to control", "assay_type": "protein-complex assay"}, "[21]": {"experiment": "Cmax in ICR mouse plasma at 1 mg/kg, po administered as cassette dose by LC-MS/MS analysis", "assay_type": "ADME, organism-based", "design": "dose 1 mg/kg, route oral"}, "[22]": {"experiment": "Volume of distribution at steady state in ICR mouse plasma at 0.1 mg/kg, iv administered as cassette dose by LC-MS/MS analysis", "assay_type": "ADME, organism-based", "conditions": "read-out: Vdss"}, "[23]": {"biological_target": "High affinity nerve growth factor receptor (Homo sapiens) (UniProt P04629)", "experiment": "Inhibition of TrkA (unknown origin) at <1 uM"}, "[24]": {"tested_on": "RPMI-8226", "experiment": "Growth inhibition of human RPMI8226 cells after 196 hrs by CellTiter-Glo luminescence assay", "assay_type": "functional", "conditions": "RPMI-8226, 196 h"}, "[25]": {"tested_on": "SW480", "experiment": "Growth inhibition of human SW480 cells after 196 hrs by CellTiter-Glo luminescence assay relative to control", "assay_type": "functional"}, "[26]": {"tested_on": "RPMI-8226", "experiment": "Antitumor activity against human RPMI8226 cells xenografted in C.B17/Icr scid/scid Jcl mouse assessed as tumor growth suppression at 2.5 mg/kg, po qd administered for 14 days measured post last dose relative to control", "assay_type": "functional"}, "[27]": {"species_on_record": "Homo sapiens", "experiment": "Inhibition of PKA (unknown origin) at 1 uM using PKA peptide as substrate preincubated for 5 mins followed by substrate addition measured after 10 mins in presence of [gamma33P]ATP by scintillation counter method relative to control"}, "[28]": {"tested_on": "Mus musculus", "experiment": "Toxicity in C.B17/Icr scid/scid Jcl mouse assessed as body weight loss at 2.5 mg/kg, po qd administered for 14 days measured post last dose", "assay_type": "organism-based", "conditions": "in vivo, 336 h"}, "[29]": {"biological_target": "Cyclin-C/Cyclin-dependent kinase 19 (Homo sapiens, UniProt Q9BWU1)", "experiment": "Inhibition of kinase tracer-236 binding to GST-tagged CDK19/CyclinC (unknown origin) after 60 mins by TR-FRET assay", "assay_type": "protein-complex assay"}, "[30]": {"biological_target": "Tyrosine-protein kinase JAK1 (Homo sapiens) (UniProt P23458)", "sequence (P23458 whole entry)": "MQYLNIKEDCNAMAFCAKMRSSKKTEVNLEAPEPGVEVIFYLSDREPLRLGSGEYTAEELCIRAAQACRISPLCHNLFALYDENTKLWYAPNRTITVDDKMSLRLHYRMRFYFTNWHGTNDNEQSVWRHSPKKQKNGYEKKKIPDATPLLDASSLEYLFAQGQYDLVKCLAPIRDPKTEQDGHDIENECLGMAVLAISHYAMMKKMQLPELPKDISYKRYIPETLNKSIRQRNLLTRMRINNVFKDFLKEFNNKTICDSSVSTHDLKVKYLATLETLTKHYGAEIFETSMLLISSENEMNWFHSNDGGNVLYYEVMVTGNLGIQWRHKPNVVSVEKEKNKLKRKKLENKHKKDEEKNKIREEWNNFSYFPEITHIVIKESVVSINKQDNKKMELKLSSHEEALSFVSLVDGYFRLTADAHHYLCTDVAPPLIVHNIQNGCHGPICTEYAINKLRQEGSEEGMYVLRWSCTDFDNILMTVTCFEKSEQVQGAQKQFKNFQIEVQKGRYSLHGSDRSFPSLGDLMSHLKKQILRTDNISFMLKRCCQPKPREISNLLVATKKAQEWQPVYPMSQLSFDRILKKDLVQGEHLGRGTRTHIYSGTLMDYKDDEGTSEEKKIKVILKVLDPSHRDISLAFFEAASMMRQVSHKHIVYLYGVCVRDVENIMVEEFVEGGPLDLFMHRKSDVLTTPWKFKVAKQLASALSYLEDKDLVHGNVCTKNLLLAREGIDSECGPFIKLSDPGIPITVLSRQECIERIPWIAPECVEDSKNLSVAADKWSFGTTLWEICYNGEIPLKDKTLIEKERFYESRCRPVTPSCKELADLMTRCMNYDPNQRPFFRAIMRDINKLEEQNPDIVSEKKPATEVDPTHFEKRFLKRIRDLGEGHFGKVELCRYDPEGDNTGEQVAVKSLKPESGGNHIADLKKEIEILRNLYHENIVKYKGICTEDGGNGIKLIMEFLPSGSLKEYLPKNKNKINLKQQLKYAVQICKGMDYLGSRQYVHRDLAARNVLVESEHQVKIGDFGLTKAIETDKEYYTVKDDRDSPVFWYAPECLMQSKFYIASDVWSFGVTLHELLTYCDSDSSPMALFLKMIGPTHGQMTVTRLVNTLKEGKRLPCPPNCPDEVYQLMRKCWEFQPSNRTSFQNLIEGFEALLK", "experiment": "Inhibition of JAK1 (unknown origin) at <1 uM using biotinylated poly[Glu:Tyr] (4:1) as substrate pretreated for 5 mins followed by substrate addition measured after 10 mins by Alphascreen assay"}, "[31]": {"biological_target": "Insulin receptor (Homo sapiens) (UniProt P06213)", "experiment": "Inhibition of IRK (unknown origin) at <1 uM using biotinylated poly[Glu:Tyr] (4:1) as substrate pretreated for 5 mins followed by substrate addition measured after 60 mins by Alphascreen assay"}}, "note": "Active and inactive are the calls of the source. No cut-off for these calls is given here.", "data": [{"smiles": "COCCNC(=O)c1ccc(Oc2sc(C(N)=O)c3c2-c2sncc2CC3)cn1", "values": [{"measurement": "inhibition", "setting": "[1]", "value": "inactive"}, {"measurement": "inhibition", "setting": "[2]", "value": "Active"}, {"measurement": "Fu", "setting": "[3]", "value": 0.32, "unit": "%"}, {"measurement": "half-life", "setting": "[4]", "value": 2.1, "unit": "h"}, {"measurement": "Fu", "setting": "[5]", "value": 0.48, "unit": "%"}, {"measurement": "inhibition", "setting": "[6]", "value": "inactive"}, {"measurement": "MTD", "setting": "[7]", "value": 2.5, "unit": "mg/kg"}, {"measurement": "inhibition", "setting": "[8]", "value": 0, "unit": "%"}, {"measurement": "IC50", "setting": "[9]", "value": 0.46, "unit": "nM"}, {"measurement": "inhibition", "setting": "[10]", "value": 105, "unit": "%"}, {"measurement": "inhibition", "setting": "[11]", "value": "inactive"}, {"measurement": "inhibition", "setting": "[12]", "value": "inactive"}, {"measurement": "bioavailability", "setting": "[13]", "value": 98.5, "unit": "%"}, {"measurement": "inhibition", "setting": "[14]", "value": 7, "unit": "%"}, {"measurement": "Kd", "setting": "[15]", "value": "> 3000", "unit": "nM"}, {"measurement": "Kd", "setting": "[16]", "value": 46, "unit": "nM"}, {"measurement": "inhibition", "setting": "[17]", "value": 100, "unit": "%"}, {"measurement": "T/C", "setting": "[18]", "value": 27, "unit": "%"}, {"measurement": "solubility", "setting": "[19]", "value": 47, "unit": "µg/mL"}, {"measurement": "inhibition", "setting": "[20]", "value": 62, "unit": "%"}, {"measurement": "Cmax", "setting": "[21]", "value": 362, "unit": "ng/mL"}, {"measurement": "Vd", "setting": "[22]", "value": 2.14, "unit": "L/kg"}, {"measurement": "inhibition", "setting": "[23]", "value": "inactive"}, {"measurement": "GI50", "setting": "[24]", "value": 2.5, "unit": "nM"}, {"measurement": "growth inhibition (GI)", "setting": "[25]", "value": ">50", "unit": "%"}, {"measurement": "T/C", "setting": "[26]", "value": -1, "unit": "%"}, {"measurement": "inhibition", "setting": "[27]", "value": 1, "unit": "%"}, {"measurement": "Activity", "setting": "[28]", "value": 10.2, "unit": "%"}, {"measurement": "IC50", "setting": "[29]", "value": 0.99, "unit": "nM"}, {"measurement": "inhibition", "setting": "[30]", "value": "inactive"}, {"measurement": "inhibition", "setting": "[31]", "value": "inactive"}]}]}
